Strand notation (5' to 3'): a small letter for the sugar, then the base; units joined by * are phosphorothioate-linked, units joined directly phosphodiester-linked; [ ] holds rarer units or linkages, { } end groups; capitals alone tell only the bases. k = constrained ethyl (cEt); [5mC] = 5-methylcytosine; d = 2'-deoxy (DNA)
Test system: Yap1 mRNA
Experiment: Dose-dependent inhibition of human Yap1 in A-431 cells (Example 7, 10,000 cells per well, RTS36584)
Format: cell-based
Details: free uptake
Method: Modified oligonucleotides described in the studies above were tested at various doses in A-431 cells. Cultured A-431 cells at a density of 10,000 cells per well were treated using free uptake with modified oligonucleotides diluted to concentrations described in the tables below. After approximately 48 hours, Yap1 mRNA levels were measured as previously described using the Human Yap1 primer-probe set RTS36584. Yap1 mRNA levels were normalized to total RNA content, as measured by RIBOGREEN®. Results are presented in the tables below as percent control of the amount of Yap1 mRNA relative to untreated control cells (% UTC). IC50s were calculated using a linear regression on a log/linear plot of the data in excel.

[1] = Table 57, 15.6 nM, A-431 cells 10,000 cells per well, 48 hours
[2] = Table 57, 62.5 nM, A-431 cells 10,000 cells per well, 48 hours
[3] = Table 57, 4000.00 nM, A-431 cells 10,000 cells per well, 48 hours
[4] = Table 57, A-431 cells 10,000 cells per well
[5] = Table 56, 15.6 nM, A-431 cells 10,000 cells per well, 48 hours
[6] = Table 56, 62.5 nM, A-431 cells 10,000 cells per well, 48 hours
[7] = Table 56, 4000.00 nM, A-431 cells 10,000 cells per well, 48 hours
[8] = Table 56, A-431 cells 10,000 cells per well
[9] = 15.6 nM, A-431 cells, 10,000 cells per well, approximately 48 hours
[10] = 62.5 nM, A-431 cells, 10,000 cells per well, approximately 48 hours
[11] = 4000.00 nM, A-431 cells, 10,000 cells per well, approximately 48 hours
[12] = A-431 cells, approximately 48 hours, linear regression on log/linear plot

958781 (kG*kT*k[5mC]*dA*dT*d[5mC]*dT*dA*dT*dG*dT*dG*dT*k[5mC]*k[5mC]*kT; antisense) [compound 958781]
Yap1 mRNA, % UTC [1]: 77 % UTC | Yap1 mRNA, % UTC [2]: 45 % UTC | Yap1 mRNA, % UTC [3]: 10 % UTC | IC50 [4]: 100 nM

958763 (k[5mC]*kA*k[5mC]*dA*dA*dT*dA*d[5mC]*dA*dA*dG*dA*dT*kG*k[5mC]*kA; antisense) [compound 958763]
Yap1 mRNA, % UTC (Table 59, 15.6 nM, A-431 cells 10,000 cells per well, 48 hours): 98 % UTC | Yap1 mRNA, % UTC (Table 59, 62.5 nM, A-431 cells 10,000 cells per well, 48 hours): 60 % UTC | Yap1 mRNA, % UTC (Table 59, 4000.00 nM, A-431 cells 10,000 cells per well, 48 hours): 8 % UTC | IC50 (Table 59, A-431 cells 10,000 cells per well): 100 nM

958718 (kG*kA*kA*d[5mC]*dA*d[5mC]*dT*dA*dT*dA*dG*d[5mC]*dT*kT*kG*kG; antisense) [compound 958718]
Yap1 mRNA, % UTC (Table 60, 15.6 nM, A-431 cells 10,000 cells per well, 48 hours): 104 % UTC | Yap1 mRNA, % UTC (Table 60, 62.5 nM, A-431 cells 10,000 cells per well, 48 hours): 80 % UTC | Yap1 mRNA, % UTC (Table 60, 4000.00 nM, A-431 cells 10,000 cells per well, 48 hours): 24 % UTC | IC50 (Table 60, A-431 cells 10,000 cells per well): 200 nM

958403 (antisense k[5mC]*kA*kG*dT*dT*dT*dA*dT*dG*dT*dA*dG*dT*kA*kG*kT) [compound 958403]
Yap1 mRNA, % UTC [5]: 94 % UTC | Yap1 mRNA, % UTC [6]: 63 % UTC | Yap1 mRNA, % UTC [7]: 12 % UTC | IC50 [8]: 120 nM

958730 (k[5mC]*kT*k[5mC]*dT*dG*dT*d[5mC]*dA*dG*dT*dT*dA*dT*k[5mC]*k[5mC]*kT; antisense) [compound 958730]
Yap1 mRNA, % UTC [9]: 88 % UTC | Yap1 mRNA, % UTC [10]: 48 % UTC | Yap1 mRNA, % UTC [11]: 7 % UTC | IC50 [12]: 100 nM

958549 (kT*kG*kT*dA*dG*dA*d[5mC]*dA*d[5mC]*dA*dT*dA*d[5mC]*kT*k[5mC]*kT; antisense) [compound 958549]
Yap1 mRNA, % UTC [9]: 98 % UTC | Yap1 mRNA, % UTC [10]: 78 % UTC | Yap1 mRNA, % UTC [11]: 28 % UTC | IC50 [12]: 300 nM

958496 (k[5mC]*k[5mC]*kT*dT*dA*dT*dA*dA*dG*d[5mC]*dT*d[5mC]*d[5mC]*kT*kA*kA; antisense) [compound 958496]
Yap1 mRNA, % UTC [5]: 86 % UTC | Yap1 mRNA, % UTC [6]: 53 % UTC | Yap1 mRNA, % UTC [7]: 9 % UTC | IC50 [8]: 90 nM

958542 (kT*kA*kT*dA*dG*dT*dA*dT*dT*d[5mC]*dT*dA*dT*k[5mC]*k[5mC]*kA; antisense) [compound 958542]
Yap1 mRNA, % UTC (Table 58, 15.6 nM, A-431 cells 10,000 cells per well, 48 hours): 90 % UTC | Yap1 mRNA, % UTC (Table 58, 62.5 nM, A-431 cells 10,000 cells per well, 48 hours): 70 % UTC | Yap1 mRNA, % UTC (Table 58, 4000.00 nM, A-431 cells 10,000 cells per well, 48 hours): 17 % UTC | IC50 (Table 58, A-431 cells 10,000 cells per well): 100 nM

958377 (antisense kG*k[5mC]*kT*dG*dG*dG*dA*dT*dT*dG*dA*dT*dA*kT*kT*k[5mC]) [compound 958377]
Yap1 mRNA, % UTC [5]: 90 % UTC | Yap1 mRNA, % UTC [6]: 60 % UTC | Yap1 mRNA, % UTC [7]: 17 % UTC | IC50 [8]: 130 nM

958491 (kA*k[5mC]*kT*dA*dA*dA*dT*dG*d[5mC]*dT*dG*dT*dG*kA*k[5mC]*kA; antisense) [compound 958491]
Yap1 mRNA, % UTC [1]: 94 % UTC | Yap1 mRNA, % UTC [2]: 65 % UTC | Yap1 mRNA, % UTC [3]: 10 % UTC | IC50 [4]: 100 nM

From patent US11214803B2, “Modulators of YAP1 expression” (Ionis Pharmaceuticals, Inc., priority 2019, dated 2022)
